Results: ChEMBL document CHEMBL1201861, “Genomics of Drug Sensitity in Cancer screening data, Wellcome Trust Sanger Institute”

What was measured:
Experiment in all cases: cells
Conditions in all cases: Homo sapiens
CAPAN-1 = assay type: functional, cell-based;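 note: growth suppression of CAPAN-1 cells, read out by a cell viability assay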
Description: SANGER: Inhibition of human CAPAN-1 cell growth in a cell viability assay.

SK-MES-1 = assay type: functional, cell-based;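 note: growth inhibition of human SK-MES-1 cells, read out with a cell viability assay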
Description: SANGER: Inhibition of human SK-MES-1 cell growth in a cell viability assay.

NCI-H2452 = assay type: functional, cell-based;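 note: growth inhibition of NCI-H2452 cells, read out with a cell viability assay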
Description: SANGER: Inhibition of human NCI-H2452 cell growth in a cell viability assay.

ChaGo-K-1 = assay type: functional, cell-based;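 note: growth inhibition of ChaGo-K-1 cells, read out with a cell viability assay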
Description: SANGER: Inhibition of human ChaGo-K-1 cell growth in a cell viability assay.

Huh-7 = assay type: functional, cell-based;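 note: HuH-7 cell growth inhibition, read out with a cell viability assay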
Description: SANGER: Inhibition of human HuH-7 cell growth in a cell viability assay.

NCI-H2087 = assay type: functional, cell-based;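 note: growth inhibition determined with a cell viability readout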
Description: SANGER: Inhibition of human NCI-H2087 cell growth in a cell viability assay.

NCI-H1755 = assay type: functional, cell-based;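 note: cell viability readout used to measure growth inhibition of NCI-H1755 cells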
Description: SANGER: Inhibition of human NCI-H1755 cell growth in a cell viability assay.

SW1783 = assay type: functional, cell-based;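 note: cell growth inhibition measured with a viability assay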
Description: SANGER: Inhibition of human SW1783 cell growth in a cell viability assay.

NCI-H1792 = assay type: functional, cell-based;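 note: growth inhibition of human NCI-H1792 cells, read out as cell viability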
Description: SANGER: Inhibition of human NCI-H1792 cell growth in a cell viability assay.

HPAF-II = assay type: functional, cell-based;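 note: growth inhibition of HPAF-II cells, read out with a cell viability assay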
Description: SANGER: Inhibition of human HPAF-II cell growth in a cell viability assay.

HCT-116 = assay type: functional, cell-based
Description: SANGER: Inhibition of human HCT-116 cell growth in a cell viability assay.

SK-MEL-28 = assay type: functional, cell-based;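 note: growth inhibition of human SK-MEL-28 cells, read out with a cell viability assay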
Description: SANGER: Inhibition of human SK-MEL-28 cell growth in a cell viability assay.

SK-LU-1 = assay type: functional, cell-based;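 note: cell viability assay measuring growth inhibition of human SK-LU-1 cells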
Description: SANGER: Inhibition of human SK-LU-1 cell growth in a cell viability assay.

HO-1-N-1 = assay type: functional, cell-based;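 note: growth inhibition of human HO-1-N-1 cells, read out with a cell viability assay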
Description: SANGER: Inhibition of human HO-1-N-1 cell growth in a cell viability assay.

U2OS = assay type: functional, cell-based, U-2-OS;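 note: growth inhibition of human U-2-OS cells, determined with a cell viability assay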
Description: SANGER: Inhibition of human U-2-OS cell growth in a cell viability assay.

NCI-H1651 = assay type: functional, cell-based;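 note: Read-out is a cell viability assay, with IC50 expressing inhibition of NCI-H1651 cell growth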
Description: SANGER: Inhibition of human NCI-H1651 cell growth in a cell viability assay.

HGC-27 = assay type: functional, cell-based;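 note: growth inhibition of human HGC-27 cells, read out in a cell viability assay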
Description: SANGER: Inhibition of human HGC-27 cell growth in a cell viability assay.

MKN-45 = assay type: functional, cell-based;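 note: growth inhibition of human MKN-45 cells, measured with a cell viability assay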
Description: SANGER: Inhibition of human MKN45 cell growth in a cell viability assay.

BEN = assay type: functional, cell-based;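 note: growth inhibition of the BEN cell line, read out with a cell viability assay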
Description: SANGER: Inhibition of human BEN cell growth in a cell viability assay.

SiHa = assay type: functional, cell-based;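 note: Viability-based readout of growth inhibition in SiHa cells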
Description: SANGER: Inhibition of human SiHa cell growth in a cell viability assay.

G-402 = assay type: functional, cell-based
Description: SANGER: Inhibition of human G-402 cell growth in a cell viability assay.

KYSE-520 cell line = assay type: functional, cell-based;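 note: growth inhibition of human KYSE-520 cells, read out with a viability assay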
Description: SANGER: Inhibition of human KYSE-520 cell growth in a cell viability assay.

GP5d = assay type: functional, cell-based;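 note: growth inhibition of human GP5d cells, read out with a cell viability assay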
Description: SANGER: Inhibition of human GP5d cell growth in a cell viability assay.

H4 = assay type: functional, cell-based
Description: SANGER: Inhibition of human H4 cell growth in a cell viability assay.

LU-99A = assay type: functional, cell-based;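 note: growth inhibition of LU-99A cells, read out with a cell viability assay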
Description: SANGER: Inhibition of human LU-99A cell growth in a cell viability assay.

A-427 = assay type: functional, cell-based;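 note: growth inhibition of human A-427 cells, read out by a cell viability assay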
Description: SANGER: Inhibition of human A427 cell growth in a cell viability assay.

M14 = assay type: functional, cell-based;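 note: growth inhibition of M14 cells, read out with a cell viability assay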
Description: SANGER: Inhibition of human M14 cell growth in a cell viability assay.

SCC-9 = assay type: functional, cell-based;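 note: Read-out is a cell viability assay, with values giving inhibition of cell growth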
Description: SANGER: Inhibition of human SCC-9 cell growth in a cell viability assay.

NB12 = assay type: functional, cell-based;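 note: growth inhibition of human NB12 cells, read out by a cell viability assay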
Description: SANGER: Inhibition of human NB12 cell growth in a cell viability assay.

NCI-H1437 = assay type: functional, cell-based;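 note: growth inhibition of human NCI-H1437 cells, read out by a cell viability assay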
Description: SANGER: Inhibition of human NCI-H1437 cell growth in a cell viability assay.

RCM-1 = assay type: functional, cell-based;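 note: growth inhibition of the RCM-1 line, determined with a cell viability readout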
Description: SANGER: Inhibition of human RCM-1 cell growth in a cell viability assay.

D-542MG = assay type: functional, cell-based
Description: SANGER: Inhibition of human D-542MG cell growth in a cell viability assay.

ESS-1 = assay type: functional, cell-based;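 note: growth inhibition of human ESS-1 cells, read out by a cell viability assay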
Description: SANGER: Inhibition of human ESS-1 cell growth in a cell viability assay.

BXPC-3 = assay type: functional, cell-based;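 note: growth inhibition of human BxPC-3 cells, read out by a cell viability assay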
Description: SANGER: Inhibition of human BxPC-3 cell growth in a cell viability assay.

T98G = assay type: functional, cell-based;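 note: growth inhibition of T98G cells, read out by a cell viability assay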
Description: SANGER: Inhibition of human T98G cell growth in a cell viability assay.

NCI-H661 = assay type: functional, cell-based;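 note: cell viability assay read-out, IC50 being the concentration that inhibits growth of the cells by half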
Description: SANGER: Inhibition of human NCI-H661 cell growth in a cell viability assay.

NCI-H460 = assay type: functional, cell-based;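 note: cell viability assay scoring growth inhibition of human NCI-H460 cells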
Description: SANGER: Inhibition of human NCI-H460 cell growth in a cell viability assay.

GCT = assay type: functional, cell-based;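 note: GCT cell line proliferation inhibition, read out with a cell viability assay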
Description: SANGER: Inhibition of human GCT cell growth in a cell viability assay.

SKG-IIIa = assay type: functional, cell-based;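 note: cell growth inhibition, read out with a cell viability assay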
Description: SANGER: Inhibition of human SKG-IIIa cell growth in a cell viability assay.

HSC-2 = assay type: functional, cell-based;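 note: growth inhibition of human HSC-2 cells, read out by a cell viability assay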
Description: SANGER: Inhibition of human HSC-2 cell growth in a cell viability assay.

CAL-33 = assay type: functional, cell-based;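 note: growth inhibition of CAL-33 cells, read out with a cell viability assay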
Description: SANGER: Inhibition of human CAL-33 cell growth in a cell viability assay.

T84 = assay type: functional, cell-based;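 note: growth inhibition measured with a cell viability readout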
Description: SANGER: Inhibition of human T84 cell growth in a cell viability assay.

HT-1376 = assay type: functional, cell-based
Description: SANGER: Inhibition of human HT-1376 cell growth in a cell viability assay.

NCI-H28 = assay type: functional, cell-based;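 note: growth inhibition of human NCI-H28 cells, read out as cell viability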
Description: SANGER: Inhibition of human NCI-H28 cell growth in a cell viability assay.

KYSE-450 = assay type: functional, cell-based;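 note: cell growth inhibition measured by a viability assay in human KYSE-450 cells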
Description: SANGER: Inhibition of human KYSE-450 cell growth in a cell viability assay.

NCI-H2122 = assay type: functional, cell-based;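 note: growth inhibition of the cells, read out with a cell viability assay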
Description: SANGER: Inhibition of human NCI-H2122 cell growth in a cell viability assay.

MFE-280 = assay type: functional, cell-based;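 note: growth inhibition of MFE-280 cells, determined with a cell viability readout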
Description: SANGER: Inhibition of human MFE-280 cell growth in a cell viability assay.

HMV-2 cell line = assay type: functional, cell-based;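 note: growth inhibition of HMV-II cells, read out with a cell viability assay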
Description: SANGER: Inhibition of human HMV-II cell growth in a cell viability assay.

CC1=C(/C=C/C(C)=C/C=C/C(C)=C/C(=O)O)C(C)(C)CCC1 [TRETINOIN]
IC50 (CAPAN-1): > 10 µM
IC50 (SK-MES-1): > 10 µM
IC50 (NCI-H2452): > 10 µM
IC50 (ChaGo-K-1): > 10 µM
IC50 (Huh-7): > 10 µM
IC50 (NCI-H2087): > 10 µM
IC50 (NCI-H1755): > 10 µM
IC50 (SW1783): > 10 µM
IC50 (NCI-H1792): > 10 µM
IC50 (HPAF-II): > 10 µM
IC50 (HCT-116): > 10 µM
IC50 (SK-MEL-28): > 10 µM
IC50 (SK-LU-1): > 10 µM
IC50 (HO-1-N-1): > 10 µM
IC50 (U2OS): > 10 µM
IC50 (NCI-H1651): > 10 µM
IC50 (HGC-27): > 10 µM
IC50 (MKN-45): > 10 µM
IC50 (BEN): > 10 µM
IC50 (SiHa): > 10 µM
IC50 (G-402): > 10 µM
IC50 (KYSE-520 cell line): > 10 µM
IC50 (GP5d): > 10 µM
IC50 (H4): > 10 µM
IC50 (LU-99A): > 10 µM
IC50 (A-427): > 10 µM
IC50 (M14): > 10 µM
IC50 (SCC-9): > 10 µM
IC50 (NB12): > 10 µM
IC50 (NCI-H1437): > 10 µM
IC50 (RCM-1): > 10 µM
IC50 (D-542MG): > 10 µM
IC50 (ESS-1): > 10 µM
IC50 (BXPC-3): > 10 µM
IC50 (T98G): > 10 µM
IC50 (NCI-H661): > 10 µM
IC50 (NCI-H460): > 10 µM
IC50 (GCT): > 10 µM
IC50 (SKG-IIIa): > 10 µM
IC50 (HSC-2): > 10 µM
IC50 (CAL-33): > 10 µM
IC50 (T84): > 10 µM
IC50 (HT-1376): > 10 µM
IC50 (NCI-H28): > 10 µM
IC50 (KYSE-450): > 10 µM
IC50 (NCI-H2122): > 10 µM
IC50 (MFE-280): > 10 µM
IC50 (HMV-2 cell line): > 10 µM

NC(=O)c1ccc(N(C(N)=O)c2c(F)cccc2F)nc1-c1ccc(F)cc1F [VX-702]
IC50 (CAPAN-1): > 2 µM
IC50 (SK-MES-1): > 2 µM
IC50 (NCI-H2452): > 2 µM
IC50 (ChaGo-K-1): > 2 µM
IC50 (Huh-7): > 2 µM
IC50 (NCI-H2087): > 2 µM
IC50 (NCI-H1755): > 2 µM
IC50 (SW1783): > 2 µM
IC50 (NCI-H1792): > 2 µM
IC50 (HPAF-II): > 2 µM
IC50 (HCT-116): > 2 µM
IC50 (SK-MEL-28): > 2 µM
IC50 (SK-LU-1): > 2 µM
IC50 (HO-1-N-1): > 2 µM
IC50 (U2OS): > 2 µM
IC50 (NCI-H1651): > 2 µM
IC50 (HGC-27): > 2 µM
IC50 (MKN-45): > 2 µM
IC50 (BEN): > 2 µM
IC50 (SiHa): > 2 µM
IC50 (G-402): > 2 µM
IC50 (KYSE-520 cell line): > 2 µM
IC50 (GP5d): > 2 µM
IC50 (H4): > 2 µM
IC50 (LU-99A): > 2 µM
IC50 (A-427): > 2 µM
IC50 (M14): > 2 µM
IC50 (SCC-9): > 2 µM
IC50 (NB12): > 2 µM
IC50 (NCI-H1437): > 2 µM
IC50 (RCM-1): > 2 µM
IC50 (D-542MG): > 2 µM
IC50 (ESS-1): > 2 µM
IC50 (BXPC-3): > 2 µM
IC50 (T98G): > 2 µM
IC50 (NCI-H661): > 2 µM
IC50 (NCI-H460): > 2 µM
IC50 (GCT): > 2 µM
IC50 (SKG-IIIa): > 2 µM
IC50 (HSC-2): > 2 µM
IC50 (CAL-33): > 2 µM
IC50 (T84): > 2 µM
IC50 (HT-1376): > 2 µM
IC50 (NCI-H28): > 2 µM
IC50 (KYSE-450): > 2 µM
IC50 (NCI-H2122): > 2 µM
IC50 (MFE-280): > 2 µM
IC50 (HMV-2 cell line): 1.77 µM
